Measured values published in ChEMBL document CHEMBL2057193, “Preparation of 3-substituted-1-isopropyl-1H-pyrazolo[3,4-d]pyrimidin-4-amines as RET kinase inhibitors” (J Med Chem, 2012).
Calls of active or inactive are those of the source. No cut-off for these calls is given here.

Columns and labels:
[1] = test system: TPC1; assay: Antiproliferative activity against human TPC1 cells; type: functional, cell-based
[2] = target: T1, Proto-oncogene tyrosine-protein kinase receptor Ret (Homo sapiens, UniProt P07949); assay: Inhibition of RET by commercial radiometric assay
[3] = target: T1, Proto-oncogene tyrosine-protein kinase receptor Ret; conditions: TPC1, 200 nM
Description: Inhibition of RET in human TPC1 cells expressing constitutively active RET fusion protein assessed as reduction in nuclear translocation of ERK1/2 at 200 nM by immunofluorescence microscopy

[4] = test system: TPC1; assay: Antiproliferative activity against human TPC1 cells at 1 uM; type: functional, cell-based
[5] = target: T2, Mitogen-activated protein kinase; ERK1/ERK2 (Homo sapiens) (UniProt P27361+P28482); assay: Inhibition of ERK1/2 phosphorylation in human HCT116 cells at 50 to 200 nM by Western blotting; type: cell-based; conditions: HCT-116
[6] = test system: HCT-116; assay: Toxicity in human HCT116 cells at =< 10 uM; type: cell-based
[7] = target: T1, Proto-oncogene tyrosine-protein kinase receptor Ret; conditions: TPC1, 50 to 200 nM
Description: Inhibition of RET in human TPC1 cells expressing constitutively active RET fusion protein assessed as reduction in ERK1/2 phosphorylation at 50 to 200 nM by Western blotting

[8] = test system: TPC1; assay: Toxicity in human TPC1 cells at =< 10 uM; type: cell-based
[9] = target: T2, Mitogen-activated protein kinase; ERK1/ERK2 (Homo sapiens); assay: Inhibition of nuclear translocation of ERK1/2 in human HCT116 cells at 200 nM by immunofluorescence microscopy; type: cell-based; conditions: HCT-116
[10] = test system: HCT-116; assay: Antiproliferative activity against human HCT116 cells at 1 uM; type: functional, cell-based
[11] = target: T1, Proto-oncogene tyrosine-protein kinase receptor Ret; conditions: MCF7, 100 nM
Description: Inhibition of RET in serum starved human MCF7 cells assessed as reduction in GDNF-induced ERK1/2 phosphorylation at 100 nM added 30 mins before GDNF stimulation and incubated for further 45 mins by Western blotting

[12] = test system: HCT-116; assay: Antiproliferative activity against human HCT116 cells; type: functional, cell-based

T1 sequence (P07949 whole entry): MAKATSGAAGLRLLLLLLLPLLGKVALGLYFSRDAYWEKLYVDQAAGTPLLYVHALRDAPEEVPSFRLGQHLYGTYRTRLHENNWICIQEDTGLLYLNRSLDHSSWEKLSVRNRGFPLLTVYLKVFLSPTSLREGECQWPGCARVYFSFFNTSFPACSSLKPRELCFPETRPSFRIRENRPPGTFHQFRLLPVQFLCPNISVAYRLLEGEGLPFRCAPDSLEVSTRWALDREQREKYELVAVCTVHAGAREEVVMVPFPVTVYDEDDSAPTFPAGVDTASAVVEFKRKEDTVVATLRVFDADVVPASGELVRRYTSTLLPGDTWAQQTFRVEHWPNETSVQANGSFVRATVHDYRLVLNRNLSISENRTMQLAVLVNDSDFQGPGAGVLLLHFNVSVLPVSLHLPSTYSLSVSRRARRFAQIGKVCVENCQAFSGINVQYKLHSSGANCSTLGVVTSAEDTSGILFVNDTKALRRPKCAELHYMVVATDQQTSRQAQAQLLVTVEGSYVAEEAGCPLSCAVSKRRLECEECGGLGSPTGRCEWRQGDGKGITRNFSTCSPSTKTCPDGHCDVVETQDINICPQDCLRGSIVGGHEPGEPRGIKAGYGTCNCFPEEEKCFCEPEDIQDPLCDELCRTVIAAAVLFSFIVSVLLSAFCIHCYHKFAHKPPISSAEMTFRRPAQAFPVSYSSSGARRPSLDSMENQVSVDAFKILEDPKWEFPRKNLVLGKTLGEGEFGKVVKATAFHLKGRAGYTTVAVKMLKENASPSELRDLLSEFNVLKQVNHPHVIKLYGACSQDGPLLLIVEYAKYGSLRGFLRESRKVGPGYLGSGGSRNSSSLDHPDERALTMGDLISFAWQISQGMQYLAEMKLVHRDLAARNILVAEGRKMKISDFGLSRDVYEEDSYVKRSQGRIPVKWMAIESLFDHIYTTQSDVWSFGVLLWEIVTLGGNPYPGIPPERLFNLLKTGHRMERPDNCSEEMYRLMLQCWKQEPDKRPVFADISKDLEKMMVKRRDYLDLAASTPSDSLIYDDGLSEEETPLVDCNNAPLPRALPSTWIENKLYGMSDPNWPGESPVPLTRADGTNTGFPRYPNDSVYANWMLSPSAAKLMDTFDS
T2 sequence (P27361 whole entry, looked up): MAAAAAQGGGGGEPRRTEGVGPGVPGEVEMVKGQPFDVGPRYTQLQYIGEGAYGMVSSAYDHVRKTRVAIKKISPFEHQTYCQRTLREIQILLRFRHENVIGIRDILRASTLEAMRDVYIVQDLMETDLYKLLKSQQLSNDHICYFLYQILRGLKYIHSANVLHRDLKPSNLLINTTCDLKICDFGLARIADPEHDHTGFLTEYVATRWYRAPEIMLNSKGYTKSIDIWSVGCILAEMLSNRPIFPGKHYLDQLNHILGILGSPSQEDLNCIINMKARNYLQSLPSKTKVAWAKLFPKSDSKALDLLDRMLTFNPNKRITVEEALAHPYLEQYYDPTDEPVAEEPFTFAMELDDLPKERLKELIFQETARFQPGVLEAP
T2 sequence (P28482 whole entry, looked up): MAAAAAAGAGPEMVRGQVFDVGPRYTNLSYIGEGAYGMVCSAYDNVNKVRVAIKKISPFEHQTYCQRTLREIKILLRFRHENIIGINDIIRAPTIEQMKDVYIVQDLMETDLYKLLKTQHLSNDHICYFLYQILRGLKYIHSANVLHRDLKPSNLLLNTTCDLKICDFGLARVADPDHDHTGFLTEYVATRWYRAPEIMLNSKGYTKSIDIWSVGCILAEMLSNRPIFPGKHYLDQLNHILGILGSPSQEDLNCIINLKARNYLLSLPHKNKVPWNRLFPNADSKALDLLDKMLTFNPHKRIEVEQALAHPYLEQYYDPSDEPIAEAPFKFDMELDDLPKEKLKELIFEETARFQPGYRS

Compound	EC50 [1]	IC50 [2]	inhibition [3]	inhibition [4]	inhibition [5]	Activity [6]	inhibition [7]	Activity [8]	inhibition [9]	inhibition [10]	inhibition [11]	EC50 [12]
CNC(=O)c1cc(Oc2ccc(NC(=O)Nc3ccc(Cl)c(C(F)(F)F)c3)cc2)ccn1 [SORAFENIB]	2.6 µM											
CC(C)n1nc(C#Cc2ccccc2)c2c(N)ncnc21	3.3 µM	0.008 µM	Active	Active	inactive	Non-toxic	Active	Non-toxic	inactive	inactive	Active	2.4 µM
